Measured values: ChEMBL document CHEMBL2021874, “Discovery of a series of 2-(1H-pyrazol-1-yl)pyridines as ALK5 inhibitors with potential utility in the prevention of dermal scarring” (Bioorg Med Chem Lett, 2012)
The source made the active and inactive calls. The rule behind the calls is not given here.

Key:
[1] = Photostability of the compound assessed as compound remaining after exposure to sunlight; assay type: physicochemical
[2] = biological target: T1, TGF-beta receptor type-1 (Mus musculus, UniProt Q64729); assay: Inhibition of ALK5 in mouse NIH/3T3 cells by smad binding element reporter based assay; assay type: cell-based
T1 sequence (Q64729 whole entry): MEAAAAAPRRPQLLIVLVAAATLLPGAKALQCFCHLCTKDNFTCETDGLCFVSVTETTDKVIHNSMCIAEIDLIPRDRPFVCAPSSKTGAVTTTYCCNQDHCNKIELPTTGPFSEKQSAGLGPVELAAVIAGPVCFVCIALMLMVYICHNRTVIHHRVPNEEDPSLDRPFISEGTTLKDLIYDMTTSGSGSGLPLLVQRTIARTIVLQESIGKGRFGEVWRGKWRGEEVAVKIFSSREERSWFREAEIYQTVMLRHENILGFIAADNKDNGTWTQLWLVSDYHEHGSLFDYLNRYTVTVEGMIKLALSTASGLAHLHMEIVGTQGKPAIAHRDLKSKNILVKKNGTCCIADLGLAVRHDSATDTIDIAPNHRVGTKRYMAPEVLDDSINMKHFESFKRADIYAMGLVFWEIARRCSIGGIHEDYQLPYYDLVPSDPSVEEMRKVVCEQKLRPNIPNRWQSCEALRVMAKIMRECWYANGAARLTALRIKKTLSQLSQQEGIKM

[3] = biological target: T2, TGF-beta receptor type-1 (Homo sapiens, UniProt P36897); assay: Inhibition of ALK5
T2 sequence (P36897 whole entry): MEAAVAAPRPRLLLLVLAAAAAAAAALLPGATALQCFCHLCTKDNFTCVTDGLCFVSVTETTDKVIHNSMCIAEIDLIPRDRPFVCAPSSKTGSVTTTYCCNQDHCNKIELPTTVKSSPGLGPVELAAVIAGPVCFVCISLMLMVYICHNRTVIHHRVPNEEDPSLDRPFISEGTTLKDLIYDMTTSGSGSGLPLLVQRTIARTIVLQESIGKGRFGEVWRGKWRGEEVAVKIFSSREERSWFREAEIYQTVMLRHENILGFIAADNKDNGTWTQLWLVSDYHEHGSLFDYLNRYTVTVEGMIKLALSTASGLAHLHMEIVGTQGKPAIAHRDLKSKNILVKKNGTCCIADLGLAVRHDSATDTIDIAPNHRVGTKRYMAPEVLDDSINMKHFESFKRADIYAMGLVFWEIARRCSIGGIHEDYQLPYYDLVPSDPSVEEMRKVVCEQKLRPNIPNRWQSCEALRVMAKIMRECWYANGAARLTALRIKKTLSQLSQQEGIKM

[4] = test system: Fibroblast; assay: Inhibition of in TGFbeta-induced CTGF gene expression in human fibroblasts; assay type: functional, cell-based
[5] = test system: Rattus norvegicus; assay: Inhibition of dermal injury-induced CTGF gene expression in rat wound repair model treated topically after 7 days; assay type: functional, organism-based
[6] = test system: Rattus norvegicus; assay: Inhibition of dermal injury-induced TGFbeta-1 gene expression in rat wound repair model treated topically after 7 days; assay type: functional, organism-based
[7] = test system: Fibroblast; assay: Inhibition of in TGFbeta-induced PAI1 gene expression in human fibroblasts; assay type: functional, cell-based
[8] = test system: Rattus norvegicus; assay: Inhibition of dermal injury-induced FN1 gene expression in rat wound repair model treated topically after 7 days; assay type: functional, organism-based
[9] = biological target: Activin receptor type-1-like (Homo sapiens, UniProt P37023); assay: Inhibition of ALK1
Sequence of Activin receptor type-1-like (P37023 whole entry): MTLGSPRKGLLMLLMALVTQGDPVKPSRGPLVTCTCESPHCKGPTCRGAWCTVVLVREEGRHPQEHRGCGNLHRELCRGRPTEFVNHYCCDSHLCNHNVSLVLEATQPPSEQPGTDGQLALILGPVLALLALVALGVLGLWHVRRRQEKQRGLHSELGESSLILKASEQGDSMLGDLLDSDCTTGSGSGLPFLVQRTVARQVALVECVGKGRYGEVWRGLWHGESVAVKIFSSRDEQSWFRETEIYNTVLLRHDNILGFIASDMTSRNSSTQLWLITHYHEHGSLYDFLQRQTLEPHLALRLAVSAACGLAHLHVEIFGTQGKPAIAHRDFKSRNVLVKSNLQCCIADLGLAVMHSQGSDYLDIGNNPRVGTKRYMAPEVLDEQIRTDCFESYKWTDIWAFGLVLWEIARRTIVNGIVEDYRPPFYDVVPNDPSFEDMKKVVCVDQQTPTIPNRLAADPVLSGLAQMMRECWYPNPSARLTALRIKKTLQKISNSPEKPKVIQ

[10] = test system: Fibroblast; assay: Inhibition of in TGFbeta-induced COL1A gene expression in human fibroblasts; assay type: functional, cell-based
[11] = test system: Fibroblast; assay: Inhibition of in TGFbeta-induced FSP1 gene expression in human fibroblasts; assay type: functional, cell-based
[12] = test system: Rattus norvegicus; assay: Inhibition of dermal injury-induced alpha-SMA gene expression in rat wound repair model treated topically after 7 days; assay type: functional, organism-based
[13] = test system: Rattus norvegicus; assay: Inhibition of dermal injury-induced FSP1 gene expression in rat wound repair model treated topically after 7 days; assay type: functional, organism-based
[14] = test system: Rattus norvegicus; assay: Inhibition of dermal injury-induced CLO1A gene expression in rat wound repair model treated topically after 7 days; assay type: functional, organism-based
[15] = test system: Fibroblast; assay: Inhibition of in TGFbeta-induced TGFbeta1 gene expression in human fibroblasts; assay type: functional, cell-based
[16] = test system: Rattus norvegicus; assay: Inhibition of dermal injury-induced new collagen synthesis in rat wound repair model at 1% treated topically after 7 days; assay type: functional
[17] = test system: Fibroblast; assay: Inhibition of in TGFbeta-induced SMAD2/3 phosphorylation in human fibroblasts; assay type: functional, cell-based
[18] = biological target: T3, Activin receptor type-1B (Homo sapiens, UniProt P36896); assay: Inhibition of ALK4
T3 sequence (P36896 whole entry): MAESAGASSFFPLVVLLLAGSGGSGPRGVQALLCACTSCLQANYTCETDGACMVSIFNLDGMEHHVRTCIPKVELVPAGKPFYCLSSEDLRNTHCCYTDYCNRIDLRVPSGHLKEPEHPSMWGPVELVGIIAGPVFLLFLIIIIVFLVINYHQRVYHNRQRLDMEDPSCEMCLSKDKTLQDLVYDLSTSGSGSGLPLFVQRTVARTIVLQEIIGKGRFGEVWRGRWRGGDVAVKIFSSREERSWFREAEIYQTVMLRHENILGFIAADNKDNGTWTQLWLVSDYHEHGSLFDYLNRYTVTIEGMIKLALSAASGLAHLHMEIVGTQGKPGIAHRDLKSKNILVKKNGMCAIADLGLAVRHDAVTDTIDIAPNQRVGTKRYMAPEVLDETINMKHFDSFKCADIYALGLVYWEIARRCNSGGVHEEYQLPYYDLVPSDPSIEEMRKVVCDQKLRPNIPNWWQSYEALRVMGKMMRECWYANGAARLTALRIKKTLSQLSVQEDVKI

[19] = test system: Fibroblast; assay: Inhibition of in TGFbeta-induced FN1 gene expression in human fibroblasts; assay type: functional, cell-based
[20] = test system: Rattus norvegicus; assay: Inhibition of dermal injury-induced PAI1 gene expression in rat wound repair model treated topically after 7 days; assay type: functional, organism-based
[21] = test system: Fibroblast; assay: Inhibition of in TGFbeta-induced alpha-SMA gene expression in human fibroblasts; assay type: functional, cell-based
[22] = test system: Rattus norvegicus; assay: Inhibition of wound healing in rat wound repair model treated topically by measuring wound closure after 7 days; assay type: functional, organism-based
[23] = Photostability of the compound assessed as compound degradation after exposure to sunlight; assay type: physicochemical; conditions: read-out: Drug degradation

| Structure (SMILES) | Stability [1] [%] | IC50 [2] [µM] | IC50 [3] [µM] | also measured |
| --- | --- | --- | --- | --- |
| CCn1cnc2ccc(-c3ccnn3-c3cccc(C)n3)cc2c1=O | 100 | 0.708 | 0.069 | – |
| CCc1cc(-c2ccc3ncn(C)c(=O)c3c2)n(-c2cccc(C)n2)n1 | – | 0.274 | 0.001 | – |
| Cc1cccc(-n2nccc2-c2ccc3ncn(C)c(=O)c3c2)n1 | 99.4 | 0.211 | 0.013 | inhibition [4]: Dose-dependent effect; inhibition [5]: Dose-dependent effect; inhibition [6]: Dose-dependent effect; inhibition [7]: Dose-dependent effect; inhibition [8]: Dose-dependent effect; IC50 [9]: > 5 µM; inhibition [10]: Dose-dependent effect; inhibition [11]: Dose-dependent effect; inhibition [12]: Dose-dependent effect; inhibition [13]: Dose-dependent effect; inhibition [14]: Dose-dependent effect; inhibition [15]: Dose-dependent effect; inhibition (INH) [16]: 26%; inhibition [17]: Dose-dependent effect; IC50 [18]: 0.059 µM; inhibition [19]: Dose-dependent effect; inhibition [20]: Dose-dependent effect; inhibition [21]: Dose-dependent effect; inhibition [22]: inactive |
| Cc1cccc(-n2nc(C)cc2-c2ccc3ncn(C)c(=O)c3c2)n1 | – | 0.695 | 0.003 | – |
| Cc1cccc(-c2n[nH]cc2-c2ccc3ncn(C)c(=O)c3c2)n1 | 32 | – | – | degraded [23]: 68% |

Continued, in another order:

| Stability [1] [%] | IC50 [2] [µM] | IC50 [3] [µM] | Structure (SMILES) | also measured |
| --- | --- | --- | --- | --- |
| 100 | 0.046 | 0.005 | Cc1cccc(-n2nc3c(c2-c2ccc4nc[nH]c(=O)c4c2)CCC3)n1 | – |
| 100 | 0.044 | 0.004 | C=Cn1cnc2ccc(-c3ccnn3-c3cccc(C)n3)cc2c1=O | – |
| – | 0.073 | 0.006 | Cc1cccc(-n2nccc2-c2ccc3nc[nH]c(=O)c3c2)n1 | – |
| – | 0.047 | 0.002 | CCc1cnn(-c2cccc(C)n2)c1-c1ccc2nc[nH]c(=O)c2c1 | – |
| 99 | 0.135 | 0.004 | Cc1cccc(-n2ncc(C)c2-c2ccc3ncn(C)c(=O)c3c2)n1 | – |
| – | 0.061 | 0.001 | Cc1cccc(-n2ncc(C)c2-c2ccc3nc[nH]c(=O)c3c2)n1 | – |
